For three compounds, IC50 results are on record in patent US20110224240A1 (Myrexis, Inc., priority 2010, published 2011).

What all share (assay): Multidrug resistant cell assay, cytotoxicity
The test system of one assay is P388. The class given is cell-based, murine. To be noted: Mus musculus; P388; 72 hours; read-out: Various MDR Cell Line Cytotoxicity IC50.
The test system of another assay is P388/ADR (MDR-1). It is filed as cell-based. To be noted: 72 hours, read-out: Various MDR Cell Line Cytotoxicity IC50.
The subject of a further assay is MCF-7. The class given is cell-based. The note with it: Homo sapiens, MCF7, 72 h, read-out: Various MDR Cell Line Cytotoxicity IC50.
Another assay has as its system NCI/ADR-Res (MDR-1). To be noted: 72 h, read-out: Various MDR Cell Line Cytotoxicity IC50.
A further assay relates to MCF-7/MX (BCRP-1). The class given is cell-based. To be noted: MCF7/MX, 72 h, read-out: Various MDR Cell Line Cytotoxicity IC50.
The test system of another assay is MCF-7/VP (MRP-1). To be noted: Homo sapiens, MCF7-VP, 72 h, read-out: Various MDR Cell Line Cytotoxicity IC50.

The structures appear in SMILES notation.

Method for P388/ADR (MDR-1): P388/ADR cell lines were obtained from American Type Culture Collection (Manassas, Va.) and maintained in RPMI-1640 media supplemented with 10% FCS, 10 units/ml penicillin and streptomycin, 2 mM Glutamax and 1 mM sodium pyruvate (Invitrogen Corporation, Carlsbad, Calif.). […] Cells were allowed to adhere to the plate overnight and then incubated with the compound at final concentrations ranging from 0.13 nM to 10 uM for 72 hours. Cell viability was then assessed using the ATP-lite reagent (Perkin Elmer, Foster City, Calif.). Plates were read on a Wallac Topcount luminescence reader (Perkin Elmer, Foster City, Calif.) and the results graphed in Prism software (Graphpad Software, Inc., San Diego, Calif.). Non-linear regression with variable slope analysis was performed to obtain IC50 concentration values.

Usually IC50 stands for the midpoint of a concentration-inhibition curve. As to `CC(=O)O[C@@]12CO[C@@H]1C[C@H](O)[C@@]1(C)C(=O)[C@H](O)C3=C(C)[C@@H](OC(=O)[C@H](O)[C@@H](NC(=O)OC(C)(C)C)c4ccccc4)C[C@@](O)([C@@H](OC(=O)c4ccccc4)[C@H]21)C3(C)C` [Docetaxel, docetaxel], the IC50 with P388 worked out at 3.3 nM; in the assay on P388/ADR (MDR-1), 200 nM; with MCF-7 it was 13 nM; in the assay with NCI/ADR-Res (MDR-1) it was 900 nM.
Regarding `COc1cccc2c1C(=O)c1c(O)c3c(c(O)c1C2=O)C[C@@](O)(C(=O)CO)C[C@@H]3O[C@H]1C[C@H](N)[C@@H](O)[C@H](C)O1` [Epirubicin, epirubicin, reference compound], the 50% inhibitory concentration (IC50) with MCF-7 came out at 160 nM; in the assay on MCF-7/MX (BCRP-1) it was 400 nM; with MCF-7/VP (MRP-1), 2100 nM.
Take `CC[C@]1(O)C[C@@H]2CN(CCc3c([nH]c4ccccc34)[C@@](C(=O)OC)(c3cc4c(cc3OC)N(C)[C@H]3[C@@](O)(C(=O)OC)[C@H](OC(C)=O)[C@]5(CC)C=CCN6CC[C@]43[C@@H]65)C2)C1` [Vinblastine, vinblastine]: the IC50 is 0.5 nM with P388, 8.3 nM in the assay with P388/ADR (MDR-1), 1.4 nM in the assay on MCF-7 and 100 nM in the assay on NCI/ADR-Res (MDR-1).
